Test results reported in patent US10563263B2, “Genetic polymorphisms associated with statin response and cardiovascular diseases, methods of detection and uses thereof” (CELERA CORPORATION, priority 2010, dated 2020).

System: CVD (CHD or stroke)
Test: CARE: SNP by pravastatin treatment interaction, logistic regression (synergy index), CVD endpoint
Assay type: in vivo, human
Conditions: for OR (SNP x pravastatin interaction) / OR (synergy index, SNP x pravastatin treatment interaction): CARE; for OR (synergy index), CARE, Prava vs Placebo: CVD endpoint
Description: CARE was a secondary prevention trial and WOSCOPS was a primary prevention trial.
The CHD endpoint was defined in the analyses herein of CARE as a composite endpoint of fatal CHD, definite non-fatal MI, or revascularization, and was defined in the analyses herein of WOSCOPS as a composite endpoint of death from CHD, nonfatal MI, or revascularization. In both the CARE and WOSCOPS analyses herein, the CVD endpoint was defined as a composite endpoint of CHD or stroke. […] Revascularization, which can include percutaneous transluminal coronary angioplasty (PTCA), stent placement, and coronary artery bypass graft (CABG), are medical interventions that indicate the presence of CHD.
Cohort and case-only study designs were used to identify SNPs associated with response to statin treatment.
For each SNP, a logistic regression model having treatment status as the dependent variable and SNP as the independent predictor variable was performed, with terms for age, sex and race included in the model as covariates. The anti-log of the regression coefficient corresponding to the SNP is an estimate of the synergy index (SI) (Davis et al., “Imputing gene-treatment interactions when the genotype distribution is unknown using case-only and putative placebo analyses-a new method for the Genetics of Hypertension Associated Treatment (GenHAT) study”, Statistics in Medicine 23: (2004), pages 2413-2427). The SI is a ratio of odds ratios: for example in the CARE and WOSCOPS studies, the SI represents the factor by which the odds-ratio of statin treatment, compared with placebo, among major homozygous individuals is multiplied by in order to obtain the odds-ratio of treatment vs. placebo among heterozygous individuals; and multiplied by a second time to obtain the odds-ratio of treatment vs. placebo in minor homozygous individuals. […] In a randomized clinical trial, genotype and treatment are independent by design.

With CC[C@H](C)C(=O)O[C@H]1C[C@H](O)C=C2C=C[C@H](C)[C@H](CC[C@@H](O)C[C@@H](O)CC(=O)O)[C@H]21 [Pravastatin, pravastatin] the “OR (SNP x pravastatin interaction)” value (rs2132242 allele A, ADD model, Imputed) was 0.7317, the “OR (SNP x pravastatin interaction)” value (rs2132242 allele A, DOM model, Imputed) was 0.6043 and the “OR (SNP x pravastatin interaction)” value (rs2158958 allele A, DOM model, Imputed) was 0.6617. The “OR (SNP x pravastatin interaction)” value (rs2158961 allele G, DOM model, Imputed) was 0.6544, the “OR (SNP x pravastatin interaction)” value (rs2163046 allele A, DOM model, Imputed) was 1.474 and the “OR (SNP x pravastatin interaction)” value (rs2180286 allele G, DOM model, Imputed) was 0.6211. The “OR (SNP x pravastatin interaction)” value (rs2180684 allele A, DOM model, Imputed) was 1.684, the “OR (SNP x pravastatin interaction)” value (rs2188079 allele C, ADD model, Imputed) was 1.333 and the “OR (SNP x pravastatin interaction)” value (rs2190598 allele T, DOM model, Imputed) was 0.6617. The “OR (SNP x pravastatin interaction)” value (rs2190600 allele A, DOM model, Imputed) was 0.6716, the “OR (SNP x pravastatin interaction)” value (rs2224184 allele T, DOM model, Genotyped) was 0.6357 and the “OR (SNP x pravastatin interaction)” value (rs2247066 allele A, DOM model, Imputed) was 0.6151. The “OR (SNP x pravastatin interaction)” value (rs2248236 allele C, ADD model, Imputed) was 0.6377, the “OR (SNP x pravastatin interaction)” value (rs2248236 allele C, DOM model, Imputed) was 0.6049 and the “OR (SNP x pravastatin interaction)” value (rs2265733 allele C, ADD model, Imputed) was 0.6269. For the same compound, the “OR (SNP x pravastatin interaction)” value (rs2265733 allele C, DOM model, Imputed) was 0.5989, the “OR (SNP x pravastatin interaction)” value (rs2270584 allele A, ADD model, Imputed) was 0.7437 and the “OR (SNP x pravastatin interaction)” value (rs2270584 allele A, DOM model, Imputed) was 0.5859. The “OR (SNP x pravastatin interaction)” value (rs2270586 allele A, ADD model, Imputed) was 0.7444, the “OR (SNP x pravastatin interaction)” value (rs2270586 allele A, DOM model, Imputed) was 0.5879 and the “OR (SNP x pravastatin interaction)” value (rs2317057 allele T, ADD model, Imputed) was 0.7125. The “OR (SNP x pravastatin interaction)” value (rs2322100 allele T, REC model, Genotyped) was 1.768, the “OR (SNP x pravastatin interaction)” value (rs2322101 allele A, REC model, Imputed) was 1.764 and the “OR (SNP x pravastatin interaction)” value (rs2327929 allele G, REC model, Imputed) was 1.996. For the same compound, the “OR (SNP x pravastatin interaction)” value (rs2332844 allele A, ADD model, Imputed) was 1.802, the “OR (SNP x pravastatin interaction)” value (rs2332844 allele A, REC model, Imputed) was 1.849 and the “OR (SNP x pravastatin interaction)” value (rs2349170 allele G, DOM model, Imputed) was 1.638. For the same compound, the “OR (SNP x pravastatin interaction)” value (rs2356722 allele G, DOM model, Imputed) was 0.5863, the “OR (SNP x pravastatin interaction)” value (rs2364956 allele T, ADD model, Imputed) was 1.439 and the “OR (SNP x pravastatin interaction)” value (rs2373793 allele G, ADD model, Imputed) was 1.379. The “OR (SNP x pravastatin interaction)” value (rs2373793 allele G, DOM model, Imputed) was 1.446, the “OR (SNP x pravastatin interaction)” value (rs2383903 allele G, DOM model, Imputed) was 0.6249 and the “OR (SNP x pravastatin interaction)” value (rs2387945 allele G, DOM model, Imputed) was 1.587. The “OR (SNP x pravastatin interaction)” value (rs2389863 allele A, DOM model, Imputed) was 0.6722, the “OR (SNP x pravastatin interaction)” value (rs2389866 allele C, DOM model, Imputed) was 0.6634 and the “OR (SNP x pravastatin interaction)” value (rs2389869 allele C, DOM model, Imputed) was 0.6634. The “OR (SNP x pravastatin interaction)” value (rs2389870 allele C, DOM model, Genotyped) was 0.6413, the “OR (synergy index, SNP x pravastatin treatment interaction)” value (rs16938626 allele G, model DOM, Imputed) was 0.612 and the “OR (synergy index, SNP x pravastatin treatment interaction)” value (rs16964300 allele G, model ADD, Imputed) was 0.6771. For the same compound, the “OR (synergy index, SNP x pravastatin treatment interaction)” value (rs16964300 allele G, model DOM, Imputed) was 0.7073, the “OR (synergy index, SNP x pravastatin treatment interaction)” value (rs16986282 allele G, model DOM, Imputed) was 0.3124 and the “OR (synergy index, SNP x pravastatin treatment interaction)” value (rs17007620 allele G, model ADD, Imputed) was 1.421. For the same compound, the “OR (synergy index, SNP x pravastatin treatment interaction)” value (rs17007620 allele G, model DOM, Imputed) was 1.572, the “OR (synergy index, SNP x pravastatin treatment interaction)” value (rs17014326 allele G, model DOM, Imputed) was 0.5837 and the “OR (synergy index, SNP x pravastatin treatment interaction)” value (rs17047957 allele C, model DOM, Imputed) was 1.47. For the same compound, the “OR (synergy index, SNP x pravastatin treatment interaction)” value (rs17073341 allele A, model ADD, Imputed) was 2.568, the “OR (synergy index, SNP x pravastatin treatment interaction)” value (rs17073341 allele A, model DOM, Imputed) was 2.569 and the “OR (synergy index, SNP x pravastatin treatment interaction)” value (rs17138702 allele G, model ADD, Imputed) was 0.5527. The “OR (synergy index, SNP x pravastatin treatment interaction)” value (rs17189710 allele T, model ADD, Imputed) was 1.359, the “OR (synergy index, SNP x pravastatin treatment interaction)” value (rs17189710 allele T, model REC, Imputed) was 1.896 and the “OR (synergy index, SNP x pravastatin treatment interaction)” value (rs17310176 allele T, model ADD, Imputed) was 0.6381. For the same compound, the “OR (synergy index, SNP x pravastatin treatment interaction)” value (rs17310176 allele T, model DOM, Imputed) was 0.5794, the “OR (synergy index, SNP x pravastatin treatment interaction)” value (rs17358860 allele A, model DOM, Imputed) was 0.6291 and the “OR (synergy index, SNP x pravastatin treatment interaction)” value (rs17370541 allele T, model REC, Imputed) was 2.075. The “OR (synergy index, SNP x pravastatin treatment interaction)” value (rs17530747 allele T, model DOM, Imputed) was 0.5794, the “OR (synergy index, SNP x pravastatin treatment interaction)” value (rs17649114 allele C, model DOM, Imputed) was 1.543 and the “OR (synergy index, SNP x pravastatin treatment interaction)” value (rs17766172 allele A, model REC, Imputed) was 0.3869. The “OR (synergy index), CARE, Prava vs Placebo” value (from here on “OR (synergy index), CARE”) (SNP rs304597 (A1 A, A2 G), rec model, cohort) was 1.95, the “OR (synergy index), CARE” value (SNP rs304601 (A1 A, A2 G), rec model, Caseonly) was 2.28 and the “OR (synergy index), CARE” value (SNP rs988146 (A1 G, A2 A), add model, Caseonly) was 0.66. For the same compound, the “OR (synergy index), CARE” value (SNP rs1336400 (A1 A, A2 G), dom model, cohort) was 1.68, the “OR (synergy index), CARE” value (SNP rs1559557 (A1 G, A2 A), add model, Caseonly) was 1.34 and the “OR (synergy index), CARE” value (SNP rs1877527 (A1 G, A2 A), add model, Caseonly) was 0.75. The “OR (synergy index), CARE” value (SNP rs2132241 (A1 A, A2 G), add model, Caseonly) was 0.74, the “OR (synergy index), CARE” value (SNP rs2270588 (A1 G, A2 A), add model, Caseonly) was 0.72 and the “OR (synergy index), CARE” value (SNP rs3844207 (A1 G, A2 C), add model, cohort) was 0.73. For the same compound, the “OR (synergy index), CARE” value (SNP rs7132840 (A1 T, A2 G), add model, cohort) was 0.75, the “OR (synergy index), CARE” value (SNP rs9325191 (A1 A, A2 C), add model, Caseonly) was 0.74 and the “OR (synergy index), CARE” value (SNP rs9346951 (A1 A, A2 G), add model, Caseonly) was 1.56. For the same compound, the “OR (synergy index), CARE” value (SNP rs10787944 (A1 G, A2 A), dom model, Caseonly) was 1.63, the “OR (synergy index), CARE” value (SNP rs10945874 (A1 T, A2 C), add model, cohort) was 1.72 and the “OR (synergy index), CARE” value (SNP rs11178579 (A1 T, A2 G), add model, cohort) was 0.76. The “OR (synergy index), CARE” value (SNP rs13103899 (A1 G, A2 A), dom model, cohort) was 0.70, the “OR (synergy index), CARE” value (SNP rs13107334 (A1 G, A2 T), add model, cohort) was 0.69 and the “OR (synergy index), CARE” value (SNP rs13121569 (A1 G, A2 A), dom model, Caseonly) was 0.66. The “OR (synergy index), CARE” value (SNP rs17048681 (A1 G, A2 T), add model, cohort) was 1.26.
